In data set [1] the test system is HepG2 cells. Briefly: Measurement of triglyceride (Amplex red fluorescence). The conditions noted are these: Homo sapiens, 24 h treatment, lower is better, read-out: triglyceride synthesis ability, % control. The format is cell-based. The protocol:
(§1) Metformin that is widely used in type 2 diabetic patients inhibits the formation of glucose, the synthesis of cholesterol and triglyceride in liver cells and promote the absorption of glucose from blood vessels in the muscle cells. […] In the case of the ability to form cholesterol, triglyceride and glucose, the lower the numerical value, the better the effect. Numerical values for a control group become reference values.
(§2) As a hepatic cell model, HepG2 cells were cultured in 1% serum-containing media for 24 hours, and then treated with each of the compounds for 24 hours. Then, the cells were disrupted with lysis buffer (0.1M potassium phosphate, pH 7.4, 0.05 M NaCl, 5 mM cholic acid, 0.1% Triton X-100). To the disrupted cells, the same volume of a reaction solution (0.76 U/ml glycerol kinase, 151333 U/ml peroxidase, 22.2 U/ml glycerol oxidizing agent, and 300 μM Amplex red as a fluorescent factor) was added and allowed to react at 37° C. for 30 minutes. After completion of the reaction, the cells were measured with a fluorometer at a wavelength of 560/590 nm (ex/em), thus quantifying the amount of triglyceride formed in the cells. A lower measurement value means an increased lipid production inhibitory ability.

For data set [2], the system named is HepG2 cells. The data set can be described thus: Measurement of cholesterol synthesis ability (Amplex red fluorescence). The following applies: Homo sapiens, HepG2 cells, 24 h treatment, lower is better, read-out: cholesterol synthesis ability, % control. The format is cell-based.
Text: as §1
as §2, with “model, HepG2 cells were used to measure cholesterol synthesis inhibitory ability, which is the important function of AMPK. The hepatic cell model” for “model,”, “(0.1 M” for “(0.1M”, “(2” for “(0.76”, “cholesterol oxidizing agent, 2” for “glycerol kinase, 151333”, “0.2” for “22.2”, “cholesterol esterase,” for “glycerol oxidizing agent,”

The subject of data set [3] is HepG2 cells. Briefly: Measurement of gluconeogenesis (14C-lactate). The format is cell-based. The conditions noted are these: Homo sapiens, 24 h treatment, lower is better, read-out: gluconeogenesis (glucose synthesis ability), % control. The procedure:
as §1
As a hepatic cell model, HepG2 cells were cultured in 10% serum-containing high glucose media, and then treated with each of the compounds for 24 hours. Then, the cells were treated with 0.5 uCi 14C-lactate and 10 mM L-lactate, and cultured for 4 hours. After cultivation, the media of the cells were removed, and the cells were washed with PBS, treated with 0.1N NaOH and left to stand at room temperature for 1 hour. Then, the cells were neutralized with 1N HCl, and the amount of glucose formed in the cells was measured with a liquid scintillation counter. […] A lower measurement value means a stronger blood glucose lowering activity.

Data set [4] relates to C2C12 cells. Briefly: Measurement of glucose absorption (3H-deoxy-glucose). It is filed as cell-based. The conditions noted are these: for activity at 100 µM / activity at 250 µM / activity at 200 µM: Mus musculus, differentiated C2C12 muscle cells, with 1 μM insulin 24 h, higher is better, read-out: glucose absorption, % control; for effect of reducing insulin resistance, times better than the control group: absorption effect divided by average percent of control group (metformin 2 mM), multiplied by 20.
Text: as §1
As a muscle cell model, C2C12 cells were induced to differentiate into muscle cells in 2% bovine fetal serum for 6 days. The C2C12 cells which differentiated into muscle cells were treated with each of the compounds in serum-free low glucose media, and then cultured with 1 μM of insulin for 24 hours. After cultivation, the cells were treated with 1 μCi 3H-deoxy-glucose and 10 μM deoxy-glucose at 37° C. for 15 minutes. After treatment, the media were removed, and the cells were washed twice with PBS. The washed cells were treated with 0.1 N NaOH and neutralized with 1N HCl. The amount of glucose absorbed into the cells was measured with a liquid scintillation counter. The effect of the compounds was determined by selecting a compound showing an absorption effect of at least 200%, dividing the absorption effect by the average percent of the control group, and then multiplying the divided value by […]. A higher measurement value means a stronger ability to reduce insulin resistance.

Compound `CN(C)c1nc(N)nc(Nc2ccc(-c3ccccc3)cc2)n1` [Example 37, N2-(biphenyl-4-yl)-N4,N4-dimethyl-1,3,5-triazine-2,4,6-triamine] displayed a melting point of 190 to 201 °C. In addition, in data set [1], the activity at 100 µM worked out at 80.6%. Besides, the activity at 100 µM in data set [2] worked out at 66.8%. Moreover, in data set [3], the activity at 100 µM came to 85.7%. Moreover, the activity at 100 µM in data set [4] was determined as 151%.

In turn, `CN(C)c1nc(N)nc(NCc2ccco2)n1` [Example 5, N2-(furan-2-ylmethyl)-N4,N4-dimethyl-1,3,5-triazine-2,4,6-triamine] registered a melting point of 151.6 to 152 °C. The activity at 250 µM in data set [1] turned out to be 90.2%. The activity at 250 µM in data set [2] worked out at 77.5%. Moreover, in data set [3], the activity at 500 µM turned out to be 68.5%. The activity at 250 µM in data set [4] was found to be 142%.

Compound `COc1cc(Nc2nc(N)nc(N(C)C)n2)cc(OC)c1` [Example 16, N2-(3,5-dimethoxyphenyl)-N4,N4-dimethyl-1,3,5-triazine-2,4,6-triamine] registered a melting point of 148 to 150 °C. For the same compound, in data set [1], the activity at 100 µM was found to be 79.5%. In addition, the activity at 100 µM in data set [2] was 66.9%. Further, the activity at 100 µM in data set [3] was 87.6%. The activity at 100 µM in data set [4] turned out to be 63.2%.

Compound `CCCCCCNc1nc(N)nc(N(C)C)n1` [Example 29, N2-hexyl-N4,N4-dimethyl-1,3,5-triazine-2,4,6-triamine] yielded a melting point of 142 to 149 °C. In addition, in data set [1], the activity at 100 µM turned out to be 41.2%. The activity at 100 µM in data set [2] worked out at 63.5%. The activity at 100 µM in data set [3] came out at 16.3%. The activity at 100 µM in data set [4] was determined as 94.5%.

In the case of `COc1ccc(CNc2nc(N)nc(N(C)C)n2)cc1O` [Example 8, 5-((4-amino-6-(dimethylamino)-1,3,5-triazine-2-ylamino)methyl)-2-methoxyphenol], the melting point was in the range of 141.4 to 142 °C. The activity at 100 µM in data set [1] is 106%. In addition, in data set [2], the activity at 100 µM was 59.1%. The activity at 200 µM in data set [3] came to 94.8%. Moreover, the activity at 200 µM in data set [4] stood at 126%.

Consider `Nc1nc(N)nc(NCCc2ccccc2)n1` [Example 13, N2-phenethyl-1,3,5-triazine-2,4,6-triamine], for which the melting point fell in the range of 169.9 to 171.8 °C. Moreover, the activity at 100 µM in data set [1] amounted to 103%. Moreover, the activity at 100 µM in data set [2] is 92.3%. Moreover, the activity at 200 µM in data set [3] amounted to 99.6%. Besides, the activity at 200 µM in data set [4] amounted to 115%.

The compound `CCCc1ccc(Nc2nc(N)nc(N(C)C)n2)cc1` [Example 27, N2,N2-dimethyl-N4-(4-propylphenyl)-1,3,5-triazine-2,4,6-triamine] returned a melting point of 155 to 165 °C. Also, the activity at 100 µM in data set [1] was determined as 67.4%. Further, the activity at 100 µM in data set [2] was 63.5%. Further, the activity at 100 µM in data set [3] worked out at 30.9%. Further, the activity at 100 µM in data set [4] stood at 4.05%.

`Cc1ccccc1Nc1nc(N)nc(N(C)C)n1` [Example 33, N2,N2-dimethyl-N4-o-tolyl-1,3,5-triazine-2,4,6-triamine] displayed a melting point of 122 to 143 °C. The activity at 100 µM in data set [1] worked out at 91.9%. Further, the activity at 100 µM in data set [2] was 65.8%. The activity at 100 µM in data set [3] is 95.6%. In addition, the activity at 100 µM in data set [4] came to 148%.

`CN(C)c1nc(N)nc(N2CCCCCC2)n1` [Example 34, 6-(azepan-1-yl)-N2,N2-dimethyl-1,3,5-triazine-2,4-diamine]: the melting point is 240 to 249 °C. Also, the activity at 100 µM in data set [1] was 70.9%. Also, the activity at 100 µM in data set [2] turned out to be 52.6%. Besides, the activity at 100 µM in data set [3] is 39.4%. Moreover, in data set [4], the activity at 100 µM was 203% and the “effect of reducing insulin resistance, times better than the control group” value is “about 12 times”.

`CN(C)c1nc(N)nc(Nc2ccc(Br)cc2)n1` [Example 18, N2-(4-bromophenyl)-N4,N4-dimethyl-1,3,5-triazine-2,4,6-triamine] had a melting point of 105 to 108 °C. Also, the activity at 100 µM in data set [1] came out at 44.6%. In addition, the activity at 100 µM in data set [2] turned out to be 66.4%. The activity at 100 µM in data set [3] turned out to be 67%. Moreover, in data set [4], the activity at 100 µM is 91.5%.

Consider `COc1ccc(Nc2nc(N)nc(N(C)C)n2)cc1` [Example 15, N2,N2-dimethyl-N4-(4-methoxyphenyl)-1,3,5-triazine-2,4,6-triamine], for which the melting point lay within 173 to 176 °C. For the same compound, the activity at 100 µM in data set [1] was found to be 53.6%. Further, the activity at 100 µM in data set [2] was determined as 57.1%. For the same compound, in data set [3], the activity at 100 µM is 114%. In addition, the activity at 100 µM in data set [4] came to 91.1%.

Compound `CN(C)c1nc(N)nc(NCCCN2CCCC2=O)n1` [Example 9, 1-(3-(4-amino-6-(dimethylamino)-1,3,5-triazin-2-ylamino)propyl)pyrrolidin-2-one] had a melting point of 176.5 to 177 °C. Moreover, in data set [1], the activity at 100 µM came out at 95.2%. Further, in data set [2], the activity at 100 µM is 93.5%. In data set [3], the activity at 200 µM is 110%. The activity at 200 µM in data set [4] came to 120%.

Regarding `CN(C)c1nc(N)nc(Nc2cc(Cl)cc(Cl)c2)n1` [Example 24, N2-(3,5-dichlorophenyl)-N4,N4-dimethyl-1,3,5-triazine-2,4,6-triamine], the melting point fell in the range of 240 to 264 °C. The activity at 100 µM in data set [1] is 41.7%. Besides, the activity at 100 µM in data set [2] was found to be 55.8%. Besides, the activity at 100 µM in data set [3] turned out to be 49.9%. Further, in data set [4], the activity at 100 µM is 136%.

`Nc1nc(N)nc(NCc2ccc3c(c2)OCO3)n1` [Example 6, N2-(benzo[d][1,3]dioxol-5-ylmethyl)-1,3,5-triazine-2,4,6-triamine]: the melting point was in the range of 140.8 to 142.9 °C. Moreover, in data set [1], the activity at 250 µM worked out at 108%. The activity at 250 µM in data set [2] worked out at 92.7%. The activity at 500 µM in data set [3] was determined as 82.3%. Besides, the activity at 250 µM in data set [4] amounted to 114%.

`CN(C)c1nc(N)nc(NCCN2CCCCC2)n1` [Example 7, N2,N2-dimethyl-N4-(2-(piperidin-1-yl)ethyl)-1,3,5-triazine-2,4,6-triamine] came in with a melting point of 116.6 to 117.2 °C. Also, the activity at 100 µM in data set [1] worked out at 95.8%. Further, in data set [2], the activity at 100 µM was 97.4%. Besides, in data set [3], the activity at 200 µM is 101%. Moreover, the activity at 200 µM in data set [4] came out at 131%.

Take `COc1ccc(OC)c(Nc2nc(N)nc(N(C)C)n2)c1` [Example 19, N2-(2,5-dimethoxyphenyl)-N4,N4-dimethyl-1,3,5-triazine-2,4,6-triamine]: the melting point was 213 to 215 °C. The activity at 100 µM in data set [1] came out at 74.5%. The activity at 100 µM in data set [2] was determined as 69.2%. In addition, the activity at 100 µM in data set [3] came to 116%. In data set [4], the activity at 100 µM was determined as 131%.

Compound `CN(C)c1nc(N)nc(N2CCN(c3ccc([N+](=O)[O-])cc3)CC2)n1` [Example 40, N2,N2-dimethyl-6-(4-(4-nitrophenyl)piperazin-1-yl)-1,3,5-triazine-2,4-diamine] gave a melting point of 173 to 182 °C. Moreover, the activity at 100 µM in data set [1] is 110%. For the same compound, in data set [2], the activity at 100 µM amounted to 62.2%. In data set [3], the activity at 100 µM was determined as 39.8%. Further, in data set [4], the activity at 100 µM was 245% and the “effect of reducing insulin resistance, times better than the control group” value was “about 14 times”.
